The values below come from ChEMBL document CHEMBL4732263 (Bioorg Med Chem, 2021).

Each structure is given as a SMILES string. ≈ marks a conversion by molar mass, not a printed value.

Data set [1] can be described thus: in vitro. The settings on record: human, Caco-2.
Data set [2] is described as follows: in vitro. The settings on record: Balb/C, mouse, plasma; at 1 µg/mL.
The nature of data set [3]: in vitro. The settings on record: human, Caco-2. This is another data set of the same source.
For data set [4] the following is noted: mouse, microsomes, 1 h, 1 µM.
Data set [5] is described as follows: in vitro. The settings on record: mouse, liver microsomes.
Data set [6] can be described thus: Plasma clearance in Balb/C mouse at 1.9 mg/kg, iv up to 24 hrs by LC-MS analysis. The data set is classed as ADME, organism-based.
A short description of data set [7]: in vitro. The settings on record: human, liver microsomes.
Data set [8] can be described thus: Drug excretion in Sprague-Dawley rat urine at 2.9 mg/kg, iv up to 24 hrs by LC-MS analysis. It counts as ADME, organism-based. The settings on record: read-out: Drug excretion.
Data set [9] in a line: cells. The settings on record: Homo sapiens, HEK293, 10 min.
Data set [10] in a line: physchem. The settings on record: PBS, pH 6.5, pH 6.5.
The nature of data set [11]: AUC(0 to infinity) in Sprague-Dawley rat plasma at 2.9 mg/kg, iv up to 24 hrs by LC-MS analysis. The data set is classed as ADME, organism-based. Also noted: route intravenous, dose 2.9 mg/kg, time <=24.
A short description of data set [12]: Half life in Sprague-Dawley rat at 2.9 mg/kg, iv up to 24 hrs by LC-MS analysis. The settings on record: in vivo. It counts as ADME, organism-based.
Data set [13] is described as follows: in vitro. The settings on record: Balb/C, mouse, plasma; at 1 µg/mL. The source holds these as a separate data set.
For data set [14] the following is noted: mouse, blood, 2 h; at 1 µg/mL.
Data set [15] can be described thus: Volume of distribution at steady state in Balb/C mouse plasma at 1.9 mg/kg, iv up to 24 hrs by LC-MS analysis. It counts as ADME, organism-based. The settings on record: read-out: Vdss.
Data set [16] in a line: Clearance in Sprague-Dawley rat blood at 2.9 mg/kg, iv up to 24 hrs by LC-MS analysis. The data set is classed as ADME, organism-based. The settings on record: whole blood.
The nature of data set [17]: physchem. The settings on record: HCl, pH 2, pH 2.
Data set [18] in a line: Volume of distribution at steady state in Sprague-Dawley rat plasma at 2.9 mg/kg, iv up to 24 hrs by LC-MS analysis. It counts as ADME, organism-based. The settings on record: read-out: Vdss.
Data set [19] in a line: Volume of distribution at steady state in Sprague-Dawley rat blood at 2.9 mg/kg, iv up to 24 hrs by LC-MS analysis. The data set is classed as ADME, organism-based. The settings on record: whole blood, read-out: Vdss.
Data set [20] in a line: Clearance in Balb/C mouse blood at 1.9 mg/kg, iv up to 24 hrs by LC-MS analysis. It counts as ADME, organism-based. The settings on record: whole blood.
A short description of data set [21]: in vitro. The settings on record: mouse, liver microsomes. The source holds these as a separate data set.
Data set [22] can be described thus: Apparent half life in Balb/C mouse at 1.9 mg/kg, iv up to 24 hrs by LC-MS analysis. The settings on record: in vivo, read-out: t1/2(app) (converted). It counts as ADME, organism-based.
The nature of data set [23]: in vivo. The settings on record: Balb/C, mouse, po, at 1.9 to 3.5 mg/kg.
Data set [24] in a line: in vitro. The settings on record: human, liver microsomes. The source holds these as a separate data set.
Data set [25] in a line: Volume of distribution at steady state in Balb/C mouse blood at 1.9 mg/kg, iv up to 24 hrs by LC-MS analysis. The data set is classed as ADME, organism-based. The settings on record: whole blood, read-out: Vdss.
The nature of data set [26]: AUC(0 to infinity) in Balb/C mouse plasma at 1.9 mg/kg, iv up to 24 hrs by LC-MS analysis. The data set is classed as ADME, organism-based. More on the design: route intravenous, dose 1.9 mg/kg, time <=24.
The conditions of data set [27]: human, microsomes, 1 h, 1 µM.
Data set [28] is described as follows: in vitro. The settings on record: human, Caco-2. The source holds these as a separate data set.
The nature of data set [29]: in vitro. The settings on record: human, Caco-2. The source holds these as a separate data set.
The nature of data set [30]: Plasma clearance in Sprague-Dawley rat at 2.9 mg/kg, iv up to 24 hrs by LC-MS analysis. The data set is classed as ADME, organism-based.
Data set [31] deals with Sodium channel protein type 5 subunit alpha (Homo sapiens, UniProt Q14524).
The nature of data set [32]: Clearance in Sprague-Dawley rat renal blood at 2.9 mg/kg, iv up to 24 hrs by LC-MS analysis. The settings on record: whole blood. It counts as ADME, organism-based.
The target of data set [33] is Voltage-gated inwardly rectifying potassium channel KCNH2 (Homo sapiens, UniProt Q12809).
Data set [34] is described as follows: in vitro. The settings on record: human, Caco-2. This is another data set of the same source.
Data set [35] can be described thus: physchem. The settings on record: octanol/water, pH 7.4.

Sodium channel protein type 5 subunit alpha, sequence (Q14524 whole entry): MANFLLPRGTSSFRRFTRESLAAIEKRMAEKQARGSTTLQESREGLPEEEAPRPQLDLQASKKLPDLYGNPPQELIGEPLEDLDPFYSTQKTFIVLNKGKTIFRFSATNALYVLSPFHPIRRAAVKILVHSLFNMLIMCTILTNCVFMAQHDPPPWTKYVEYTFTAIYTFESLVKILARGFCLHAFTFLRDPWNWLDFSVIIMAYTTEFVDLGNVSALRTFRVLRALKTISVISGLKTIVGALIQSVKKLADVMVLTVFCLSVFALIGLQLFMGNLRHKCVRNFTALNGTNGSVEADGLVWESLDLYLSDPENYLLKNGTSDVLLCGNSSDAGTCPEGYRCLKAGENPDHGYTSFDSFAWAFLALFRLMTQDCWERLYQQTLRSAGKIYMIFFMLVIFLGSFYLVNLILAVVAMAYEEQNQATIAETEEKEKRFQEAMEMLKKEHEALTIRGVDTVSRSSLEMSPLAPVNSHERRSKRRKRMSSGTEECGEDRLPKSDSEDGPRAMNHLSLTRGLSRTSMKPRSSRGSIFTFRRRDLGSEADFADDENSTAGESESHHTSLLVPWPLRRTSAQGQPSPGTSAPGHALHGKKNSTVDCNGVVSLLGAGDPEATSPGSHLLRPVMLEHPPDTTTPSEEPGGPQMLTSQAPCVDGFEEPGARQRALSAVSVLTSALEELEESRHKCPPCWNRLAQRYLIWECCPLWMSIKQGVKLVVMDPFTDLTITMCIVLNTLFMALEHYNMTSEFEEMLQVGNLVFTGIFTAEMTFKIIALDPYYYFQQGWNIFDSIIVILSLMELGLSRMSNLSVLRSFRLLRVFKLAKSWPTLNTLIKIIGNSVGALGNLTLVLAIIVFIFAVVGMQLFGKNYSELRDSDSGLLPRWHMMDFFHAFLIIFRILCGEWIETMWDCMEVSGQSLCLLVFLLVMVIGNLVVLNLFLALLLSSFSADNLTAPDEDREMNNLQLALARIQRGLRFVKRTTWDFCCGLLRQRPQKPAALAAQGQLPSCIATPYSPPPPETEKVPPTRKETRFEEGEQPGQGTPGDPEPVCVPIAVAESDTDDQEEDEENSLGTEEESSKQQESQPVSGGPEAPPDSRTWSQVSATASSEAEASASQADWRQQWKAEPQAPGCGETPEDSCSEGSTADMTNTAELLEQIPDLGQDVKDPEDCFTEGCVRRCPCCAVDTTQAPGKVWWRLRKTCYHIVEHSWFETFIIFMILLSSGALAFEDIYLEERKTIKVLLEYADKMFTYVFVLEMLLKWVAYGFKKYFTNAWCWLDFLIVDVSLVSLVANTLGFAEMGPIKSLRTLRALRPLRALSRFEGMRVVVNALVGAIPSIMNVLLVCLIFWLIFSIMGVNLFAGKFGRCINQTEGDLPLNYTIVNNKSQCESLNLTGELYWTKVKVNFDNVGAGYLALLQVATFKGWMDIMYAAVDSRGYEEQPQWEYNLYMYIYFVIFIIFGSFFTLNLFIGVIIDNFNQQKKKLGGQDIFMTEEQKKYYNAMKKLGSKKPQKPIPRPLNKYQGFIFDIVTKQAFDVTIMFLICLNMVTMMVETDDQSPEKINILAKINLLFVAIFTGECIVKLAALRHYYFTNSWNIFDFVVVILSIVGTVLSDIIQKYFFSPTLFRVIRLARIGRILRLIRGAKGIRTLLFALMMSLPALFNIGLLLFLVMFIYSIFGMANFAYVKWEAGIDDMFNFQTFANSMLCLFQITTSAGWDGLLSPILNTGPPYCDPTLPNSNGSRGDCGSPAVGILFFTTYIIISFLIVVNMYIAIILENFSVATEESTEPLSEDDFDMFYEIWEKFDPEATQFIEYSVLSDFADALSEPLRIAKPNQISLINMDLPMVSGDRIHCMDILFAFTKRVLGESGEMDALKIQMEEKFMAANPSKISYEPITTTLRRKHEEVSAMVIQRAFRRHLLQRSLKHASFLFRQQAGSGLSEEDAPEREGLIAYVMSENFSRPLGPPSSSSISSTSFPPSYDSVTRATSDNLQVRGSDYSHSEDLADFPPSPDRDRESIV
Voltage-gated inwardly rectifying potassium channel KCNH2, sequence (Q12809 whole entry): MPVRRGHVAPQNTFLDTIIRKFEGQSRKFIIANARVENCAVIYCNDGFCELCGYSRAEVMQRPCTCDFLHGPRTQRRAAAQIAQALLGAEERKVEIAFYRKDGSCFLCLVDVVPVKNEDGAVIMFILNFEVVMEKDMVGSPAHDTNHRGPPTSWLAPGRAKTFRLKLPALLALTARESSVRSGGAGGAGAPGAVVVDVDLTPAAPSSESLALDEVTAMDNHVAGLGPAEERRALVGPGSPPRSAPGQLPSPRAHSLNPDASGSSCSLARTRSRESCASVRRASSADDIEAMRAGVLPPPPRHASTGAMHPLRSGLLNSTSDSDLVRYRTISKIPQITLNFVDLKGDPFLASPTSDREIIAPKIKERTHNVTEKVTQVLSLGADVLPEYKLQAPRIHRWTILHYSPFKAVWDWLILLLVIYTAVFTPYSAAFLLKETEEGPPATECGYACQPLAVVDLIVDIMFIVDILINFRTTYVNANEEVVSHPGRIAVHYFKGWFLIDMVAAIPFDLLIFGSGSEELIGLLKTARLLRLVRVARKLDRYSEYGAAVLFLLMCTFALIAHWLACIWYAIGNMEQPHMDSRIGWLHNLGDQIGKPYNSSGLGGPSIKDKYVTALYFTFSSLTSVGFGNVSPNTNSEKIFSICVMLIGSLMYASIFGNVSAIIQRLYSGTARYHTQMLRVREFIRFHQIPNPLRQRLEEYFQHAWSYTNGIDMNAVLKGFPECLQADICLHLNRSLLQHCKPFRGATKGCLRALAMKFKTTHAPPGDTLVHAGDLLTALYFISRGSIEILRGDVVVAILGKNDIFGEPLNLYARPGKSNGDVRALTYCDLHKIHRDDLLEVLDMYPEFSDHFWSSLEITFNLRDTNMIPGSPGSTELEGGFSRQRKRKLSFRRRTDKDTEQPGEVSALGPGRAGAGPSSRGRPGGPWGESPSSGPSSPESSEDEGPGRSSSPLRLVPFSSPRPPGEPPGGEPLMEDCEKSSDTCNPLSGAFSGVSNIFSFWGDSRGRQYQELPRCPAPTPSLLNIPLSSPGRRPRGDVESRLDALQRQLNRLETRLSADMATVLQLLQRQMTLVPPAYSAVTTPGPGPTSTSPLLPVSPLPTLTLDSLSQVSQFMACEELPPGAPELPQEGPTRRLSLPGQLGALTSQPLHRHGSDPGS

In general, Papp A→B refers to the apparent permeability from the apical to the basolateral side of a cell layer. Lower therefore signals poor permeation. What is called fraction unbound is free concentration divided by total concentration. A word on the Papp B→A: it is the apparent permeability from the basolateral to the apical side of a cell layer. Usually microsomal CLint stands for the rate of metabolic loss divided by the concentration. The low end stands for greater metabolic stability, the high end for faster metabolism. One may read the clearance as the rate of elimination divided by the concentration. Low values mean inefficient removal, high ones efficient removal. The IC50 is the concentration that inhibits the measured activity by half. Lower therefore signals greater potency. Usually solubility (kinetic) stands for solubility judged after dilution from a stock solution rather than from solid. By AUC(0-inf) is commonly meant total exposure, with the tail of the curve extrapolated. Low values mean less exposure, high ones more exposure. As a reminder, the bioavailability is the share of a dose that reaches the circulation, judged against a reference dose that is usually intravenous. A higher bioavailability goes with good availability. With `COc1ncc(-c2nc(C(=O)NC(=N)N)c(N)nc2N)cn1`, the apparent permeability from apical to basolateral (Papp A→B) at 2 h, 20 µM in data set [1] was 0.57 ×10⁻⁶ cm/s. The fraction unbound at […], 1 ug/ml in [2] was 0.4. This compound also registered an apparent permeability from basolateral to apical (Papp B→A) at 2 h, 20 µM in [3] of 0.26 ×10⁻⁶ cm/s. Also, the CL free in data set [4] and in data set [27] was less than 7 µL/min/mg each time. The microsomal CLint at 1 h, 1 µM in data set [5] and in [24] was less than 7 µL/min/mg each time. The clearance in [6] came to 38 mL/min/kg; in data set [16], 78.9 mL/min/kg; in data set [20], 41 mL/min/kg; in data set [30], 51.3 mL/min/kg. In addition, the half-life at 1 h, 1 µM in [7] and in data set [21] was greater than 4.25 h throughout. In addition, the dose excreted at 24 h in data set [8] turned out to be 36.4%. Moreover, the IC50 in data set [9], in data set [31] and in data set [33] was greater than 30 µM throughout. The kinetic solubility was 12.5 µg/mL (≈ 41.2 µM) in data set [10] and greater than 100 µg/mL in data set [17]. Besides, the AUC(0-inf) in data set [11] came out at 3.2 µM·h; in [26], 2.7 µM·h. Further, the figures for the half-life in data set [12] and in [22] were 6.7 h and 0.62 h, respectively. The metabolised at 4 h, 1 ug/ml in data set [13] is less than 6%. Also, the Stabilty entry in data set [14] was “Unstable”. In addition, the Vd in [15] was found to be 0.7 L/kg; in data set [18], 3.4 L/kg; in [19], 5.2 L/kg; in data set [25], 0.7 L/kg. In data set [23], this compound gave a bioavailability at 24 h of 0.81%. Also, the recovery at 2 h, 20 µM in data set [28] was 97%; in [29] it was 104%. The same compound displayed a CL renal at 24 h in data set [32] of 29.2 mL/min/kg.

As a reminder, the efflux ratio is a quotient of directional permeabilities that is used to spot active efflux. Regarding `COC(=O)c1ccccc1-c1c2ccc(=N)cc-2oc2cc(N)ccc12`, in data set [1], the Papp A→B at 2 h, 20 µM was 1.4 ×10⁻⁶ cm/s. In data set [3], this compound came in with a Papp B→A at 2 h, 20 µM of 12 ×10⁻⁶ cm/s. In data set [34], the efflux ratio at 2 h, 20 µM is 8.4.

`CC(C)NCC(O)COc1cccc2ccccc12` (configuration not stated) [PROPRANOLOL] displayed a Papp A→B at 2 h, 20 µM in data set [1] of 49 ×10⁻⁶ cm/s. The compound further gave a Papp B→A at 2 h, 20 µM in [3] of 51 ×10⁻⁶ cm/s. The efflux ratio at 2 h, 20 µM in data set [34] stood at 1.1.

By logD is commonly meant lipophilicity at a set pH, counting ionised and neutral species. Lower therefore signals a more hydrophilic compound. Turning to `N=C(N)NC(=O)c1nc(-c2ccc(C(F)(F)F)cc2)c(N2CCCCCC2)nc1N`, the CL free in data set [4] turned out to be 1020 µL/min/mg; in [27], 355 µL/min/mg. The microsomal CLint at 1 h, 1 µM in [5] came out at 66 µL/min/mg; in [24] it was 23 µL/min/mg. For the same compound, the logD in [35] was greater than 5.3. Also, the figures for the half-life at 1 h, 1 µM in data set [7] and in data set [21] were 1.27 h and 0.433 h, respectively. In addition, the solubility (kinetic) in data set [10] worked out at 3.1 µg/mL (≈ 7.36 µM); in data set [17], 25 µg/mL (≈ 59.3 µM).

Take `N=C(N)NC(=O)c1nc(-c2ccc(C(F)(F)F)cc2)c(N)nc1N`: the CL free in data set [4] came out at 17 µL/min/mg; in data set [27] it was 11 µL/min/mg. The microsomal CLint at 1 h, 1 µM in data set [5] was 11 µL/min/mg; in data set [24], less than 7 µL/min/mg. Also, the logD in data set [35] came to 2.8. Also, the half-life at 1 h, 1 µM in [7] is greater than 4.25 h; in data set [21], 2.55 h. Moreover, the solubility (kinetic) is 50 µg/mL (≈ 147 µM) in data set [10] and greater than 100 µg/mL in [17].
